The record followed here is patent US20160310445A1, “PREVENTION AND COUNTERACTION OF DIET-INDUCED THROMBOSIS RISK” (VITAK BV, priority 2013, published 2016).

In assay [1] the test system is Endogenous Thrombin Potential (thrombin generation in plasma). The experiment in a line: ETP in renal transplant recipients treated with menaquinone-7 (Experiment 5). The format is in vivo, renal transplant recipients (human). The text has this: (§1) There are several ways in which thrombosis tendency or increased thrombosis risk may be established, but most of them are based on one of the two following principles: • a) Citrated plasma is collected by venipuncture and clotting is induced by adding tissue factor (thromboplastin) and recalcification. The time required to clot is compared to the clotting time of a reference sample and expressed as International Normalized Ratio (INR). This method is sensitive for monitoring patients during anticoagulation treatment (INR>2.0), but insensitive for INR values<1.0 (increased thrombosis risk). • b) Citrated plasma is collected by venipuncture, defibrinated and the conversion of prothrombin into thrombin is initiated by adding tissue factor and calcium. The total amount of thrombin generated in a certain time period is expressed as Endogenous Thrombin Potential (ETP), whereas also other kinetic characteristics (thrombin peak height, time to peak) provide additional information (E. De Smedt, R. Al Dieri, H. M. Spronk, K. Hamulyak, H. ten Cate, H. C. Hemker: Thromb. Haemost. 2008; 100:343-349).
The ETP reflects the amount of thrombin that can be formed in a period of time following activation of platelet-poor plasma. The amount of thrombin generated is monitored using a chromogenic substrate for thrombin, and results from three independent principles: the circulating concentration of coagulation factors, the concentration of coagulation inhibitors (proteins C and S) and the concentration of thrombin inhibitors such as antithrombin III. Typical ETP curves show a rapid increase of thrombin formed in the first 6-8 minutes after activation, followed by a decline caused by thrombin inhibitors such as antithrombin III. […] Generally, the ETP is expressed as the area under the curve during the first 30 minutes of thrombin formation. […]
The RTR were treated with the following doses of vitamin K2 (menaquinone-7) for 3 months: 0, 90, 180 and 360 μg/day. […] Vitamin K status was assessed by measuring the ucOC/tOC ratio and the thrombosis tendency was estimated from the ETP values.

Assay [2] concerns uncarboxylated osteocalcin relative to total osteocalcin. In words: Vitamin K status by ucOC/tOC ratio in renal transplant recipients treated with menaquinone-7 (Experiment 5). The format is in vivo, renal transplant recipients (human). The text has this: In yet a further aspect, vitamin K used according to the present invention is to be administered to specific groups of subjects. As already stated supra, mammalian subjects according to the invention are in particular human subjects. Vitamin K may, in the context of the invention, be administered to healthy or apparently healthy human subjects, preferably healthy or apparently healthy adult human subjects, which may benefit from vitamin K supplementation. In particular, these subjects are characterized in that they have a regular vitamin K status and a normal thrombosis risk, particularly a normal venous thrombosis risk. The vitamin K status may e.g. be determined using the ucOC/tOC ratio, i.e. the amount of circulating uncarboxylated osteocalcin (ucOC) relative to the total amount of osteocalcin (tOC). The vitamin K status may also be determined using other methods, e.g. the carboxylation degree of the vascular Gla-protein MGP, but since this assay is not yet commercially available, the ucOC/tOC ratio will be used throughout this document.
In the present study, a group of 32 RTR were randomly subdivided into 4 groups of 8 subjects each and compared with 24 age- and sex-matched healthy volunteers.
The RTR were treated with the following doses of vitamin K2 (menaquinone-7) for 3 months: 0, 90, 180 and 360 μg/day. Blood was taken at baseline and at the end of the study to prepare EDTA plasma and serum. Vitamin K status was assessed by measuring the ucOC/tOC ratio and the thrombosis tendency was estimated from the ETP values.

Assay [3] has as its system Endogenous Thrombin Potential (thrombin generation in plasma). The experiment in a line: ETP at baseline and after one year of vitamin K1 by tertile of vitamin K status (Experiment 3). Type of assay: in vivo, postmenopausal women. The settings on record: 1 mg/day, group with the highest ucOC/tOC ratio (0.20, n=19), only in this group.
Source text: as §1, with “This method is sensitive for monitoring patients during anticoagulation treatment (INR>2.0), but insensitive for INR values<1.0 (increased thrombosis risk). • b) Citrated plasma is collected by venipuncture, defibrinated and the conversion of prothrombin into thrombin is initiated by adding tissue factor and calcium.” left out
The ETP reflects the amount of thrombin that can be formed in a period of time following activation of platelet-poor plasma. The amount of thrombin generated is monitored using a chromogenic substrate for thrombin, and results from three independent principles: the circulating concentration of coagulation factors, the concentration of coagulation inhibitors (proteins C and S) and the concentration of thrombin inhibitors such as antithrombin III. […] Generally, the ETP is expressed as the area under the curve during the first 30 minutes of thrombin formation. […]

Turning to `CC(C)=CCC/C(C)=C/CC/C(C)=C/CC/C(C)=C/CC/C(C)=C/CC/C(C)=C/CC/C(C)=C/CC1=C(C)C(=O)c2ccccc2C1=O` [menaquinone-7], the “change of ETP with dose” value in assay [1] (0, 90, 180 and 360 μg/day, 3 months, FIG. 5B) is listed as “decreased at increasing doses”. Moreover, in assay [1] (180 and 360 μg/day, 3 months), the “decline of ETP compared to baseline” value is reported as “statistically significant”. The “difference in ETP between the 0 μg/day and the 360 μg/day intake groups” value in assay [1] (t=3 months) is “significant”. Also, in assay [2] (0, 90, 180 and 360 μg/day, 3 months, FIG. 5A), the “change of ucOC/tOC ratio with dose” value is on record as “decreased in a dose-dependent way”. Also, in assay [2] (180 and 360 μg/day, 3 months), the “decline of ucOC/tOC ratio compared to baseline” value is on record as “statistically significant”. In addition, the “difference in ucOC/tOC ratio between the 0 μg/day and the 360 μg/day intake groups” value in assay [2] (t=3 months) was “significant”.

As for `CC1=C(C/C=C(\C)CCC[C@H](C)CCC[C@H](C)CCCC(C)C)C(=O)c2ccccc2C1=O` [vitamin K1, phylloquinone], the “change of ETP after vitamin K supplementation” value in assay [3] is “declined significantly”.
